Laboratory results as given in ChEMBL document CHEMBL1933062, “Synthesis of purine N9-[2-hydroxy-3-O-(phosphonomethoxy)propyl] derivatives and their side-chain modified analogs as potential antimalarial agents” (Bioorg Med Chem, 2012).
Active and inactive are the calls of the source. The rule behind the calls is not given here.

Legend:
[1] = biological target: T1, Hypoxanthine-guanine phosphoribosyltransferase (Homo sapiens) (UniProt P00492); experiment: (§1) Inhibition of human HGPRT by spectrophotometric analysis in absence of PPi
T1 sequence (whole entry): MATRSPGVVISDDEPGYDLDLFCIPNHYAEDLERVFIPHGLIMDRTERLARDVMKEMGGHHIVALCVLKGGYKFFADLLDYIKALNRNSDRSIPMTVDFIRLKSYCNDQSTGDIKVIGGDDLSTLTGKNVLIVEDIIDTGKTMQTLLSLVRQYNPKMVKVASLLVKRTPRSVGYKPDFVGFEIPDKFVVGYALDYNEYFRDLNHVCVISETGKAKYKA

Plasmodium vivax [2] = experiment: (§2) Inhibition of Plasmodium vivax HGPRT by spectrophotometric analysis in absence of PPi
Plasmodium vivax [3] = experiment: (§3) Inhibition of Plasmodium vivax HGPRT by spectrophotometric analysis in presence of 52 uM PPi
Plasmodium falciparum [4] = experiment: (§4) Inhibition of Plasmodium falciparum HGPRT by spectrophotometric analysis in absence of PPi
[5] = biological target: T1, Hypoxanthine-guanine phosphoribosyltransferase (Homo sapiens); experiment: Inhibition of human HGPRT by spectrophotometric analysis in presence of 52 uM PPi
Plasmodium falciparum [6] = experiment: (§5) Inhibition of Plasmodium falciparum HGPRT by spectrophotometric analysis in presence of 52 uM PPi
[7] = as §2
[8] = as §3
[9] = Selectivity ratio of Ki for human HGPRT to Ki for Plasmodium falciparum HGPRT
[10] = as §4
[11] = biological target: T1, Hypoxanthine-guanine phosphoribosyltransferase (Homo sapiens); experiment: Inhibition of human HGPRT at >= 30 uM by spectrophotometric analysis in presence of 52 uM PPi
[12] = Selectivity ratio of Ki for human HGPRT to Ki for Plasmodium vivax HGPRT
[13] = biological target: T1, Hypoxanthine-guanine phosphoribosyltransferase (Homo sapiens); experiment: Inhibition of human HGPRT at >= 30 uM by spectrophotometric analysis in absence of PPi
[14] = as §5
Plasmodium falciparum [15] = experiment: Inhibition of Plasmodium falciparum HGPRT at >= 100 uM by spectrophotometric analysis in presence of 52 uM PPi
Plasmodium falciparum [16] = experiment: Inhibition of Plasmodium falciparum HGPRT at >= 100 uM by spectrophotometric analysis in absence of PPi
[17] = biological target: T1, Hypoxanthine-guanine phosphoribosyltransferase (Homo sapiens); experiment: Inhibition of human HGPRT at >= 100 uM by spectrophotometric analysis in absence of PPi
Plasmodium vivax [18] = experiment: Inhibition of Plasmodium vivax HGPRT at >= 100 uM by spectrophotometric analysis in absence of PPi
Plasmodium vivax [19] = experiment: Inhibition of Plasmodium vivax HGPRT at >= 100 uM by spectrophotometric analysis in presence of 52 uM PPi
[20] = biological target: T1, Hypoxanthine-guanine phosphoribosyltransferase (Homo sapiens); experiment: Inhibition of human HGPRT at >= 100 uM by spectrophotometric analysis in presence of 52 uM PPi
[21] = biological target: T2, Hypoxanthine-guanine phosphoribosyltransferase (Homo sapiens, UniProt P00492); experiment: as §1
T2 sequence (P00492 whole entry): T1 sequence (whole entry)

Plasmodium vivax [22] = experiment: Inhibition of Plasmodium vivax HGPRT at >= 30 uM by spectrophotometric analysis in presence of 52 uM PPi
Plasmodium falciparum [23] = experiment: Inhibition of Plasmodium falciparum HGPRT at >= 30 uM by spectrophotometric analysis in presence of 52 uM PPi

SMILES	Ki [7] [µM]	Ki [8] [µM]	Ratio Ki [9]	Ki [10] [µM]	inhibition [11]	Ratio Ki [12]	Ki [14] [µM]	Ki [21] [µM]	further results
O=c1[nH]cnc2c1ncn2/C=C\COCP(=O)(O)O									inhibition [1]: inactive; inhibition (Plasmodium vivax [2]): inactive; inhibition (Plasmodium vivax [3]): inactive; inhibition (Plasmodium falciparum [4]): inactive; inhibition [5]: inactive; inhibition (Plasmodium falciparum [6]): inactive
O=c1[nH]cnc2c1ncn2CC(O)COCP(=O)(O)O (stereo not given)	5	0.9	> 50	2	inactive	> 25	0.3		inhibition [13]: inactive
O=C(O)COC(COCP(=O)(O)O)Cn1cnc2c(=O)[nH]cnc21 (stereo not given)									inhibition (Plasmodium falciparum [15]): inactive; inhibition (Plasmodium falciparum [16]): inactive; inhibition [17]: inactive; inhibition (Plasmodium vivax [18]): inactive; inhibition (Plasmodium vivax [19]): inactive; inhibition [20]: inactive
Nc1nc2c(ncn2CC(COCP(=O)(O)O)OCC(=O)O)c(=O)[nH]1 (stereo not given)	27		1	5	inactive	0.2		5	inhibition (Plasmodium vivax [22]): inactive; inhibition (Plasmodium falciparum [23]): inactive
Nc1nc2c(ncn2CC(O)COCP(=O)(O)O)c(=O)[nH]1 (stereo not given)	10	2.8	2.8	1.4		0.4	0.5	4	
